Assay results from patent EP1366765A1, “Use of matrix metalloproteinase inhibitors for treating neurological disorders and promoting wound healing” (priority 1996, dated 1998).
Where a name gives a salt, the structure may show the parent alone. Where a SMILES comes first, the peptide text is derived from it. The star is where a group is joined. Hydrocinnamoyl = O=C(CCc1ccccc1)*; Tfa = O=C(C(F)(F)F)*

Assays:
[1] = biological target: T1, MMP-1 (Homo sapiens, UniProt P03956); settings: cited from earlier work; for IC50: IA = inactive
T1 sequence (P03956 100-469): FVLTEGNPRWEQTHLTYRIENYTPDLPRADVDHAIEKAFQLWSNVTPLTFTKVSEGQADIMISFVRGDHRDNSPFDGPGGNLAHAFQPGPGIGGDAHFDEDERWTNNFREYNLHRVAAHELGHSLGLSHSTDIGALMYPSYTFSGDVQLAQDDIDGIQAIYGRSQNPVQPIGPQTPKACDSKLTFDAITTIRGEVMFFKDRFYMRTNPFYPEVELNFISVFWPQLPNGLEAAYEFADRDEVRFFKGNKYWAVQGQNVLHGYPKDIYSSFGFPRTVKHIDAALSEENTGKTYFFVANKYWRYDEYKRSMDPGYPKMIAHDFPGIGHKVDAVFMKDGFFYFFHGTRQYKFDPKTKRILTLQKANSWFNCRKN

[2] = biological target: MMP-8 (Homo sapiens, UniProt P22894); settings: cited from earlier work
[3] = biological target: MMP-3 (Homo sapiens, UniProt P08254); settings: cited from earlier work
[4] = system: MMP-2
[5] = biological target: MMP-9 (Homo sapiens, UniProt P14780); settings: cited from earlier work
[6] = biological target: MMP-13 (Homo sapiens, UniProt P45452); settings: cited from earlier work
[7] = system: MMP-2; settings: cited from earlier work
[8] = system: stromelysin; settings: dosed orally at 30 mg/kg in rabbits injected with stromelysin; cited from earlier work
[9] = cited from earlier work; for activity in the guinea pig model of osteoarthritis (in words): in vivo; for inhibiting femoral lesions: guinea pig model of osteoarthritis
[10] = in vivo; cited from earlier work
[11] = in vivo; cited from earlier work; remark: listed apart in the source
[12] = system: MMPs; settings: cited from earlier work
[13] = from MBP-sensitized splenocytes; cited from earlier work

Chain of MMP-8 (P22894 101-467, species assumed): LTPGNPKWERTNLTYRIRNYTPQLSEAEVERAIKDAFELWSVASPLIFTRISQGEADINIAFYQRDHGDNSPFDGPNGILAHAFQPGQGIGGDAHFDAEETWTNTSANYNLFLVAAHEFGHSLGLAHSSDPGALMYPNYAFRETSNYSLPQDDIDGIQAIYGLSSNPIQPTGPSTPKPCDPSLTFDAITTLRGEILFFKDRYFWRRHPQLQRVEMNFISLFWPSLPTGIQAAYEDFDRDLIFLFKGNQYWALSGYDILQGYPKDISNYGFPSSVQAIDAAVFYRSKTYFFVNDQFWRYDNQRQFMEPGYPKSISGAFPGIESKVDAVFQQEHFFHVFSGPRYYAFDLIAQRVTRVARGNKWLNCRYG
Chain of MMP-3 (P08254 100-477, species assumed): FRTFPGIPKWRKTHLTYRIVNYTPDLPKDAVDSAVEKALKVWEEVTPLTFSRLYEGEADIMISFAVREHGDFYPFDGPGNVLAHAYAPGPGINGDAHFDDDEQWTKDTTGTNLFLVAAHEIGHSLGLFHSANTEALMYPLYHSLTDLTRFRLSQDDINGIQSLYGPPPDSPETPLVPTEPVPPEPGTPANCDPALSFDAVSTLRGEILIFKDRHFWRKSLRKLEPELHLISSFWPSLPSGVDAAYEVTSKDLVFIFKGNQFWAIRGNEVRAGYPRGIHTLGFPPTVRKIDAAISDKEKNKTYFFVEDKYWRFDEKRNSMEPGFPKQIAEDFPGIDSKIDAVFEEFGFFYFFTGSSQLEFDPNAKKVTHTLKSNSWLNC
Chain of MMP-9 (P14780 94-707, species assumed): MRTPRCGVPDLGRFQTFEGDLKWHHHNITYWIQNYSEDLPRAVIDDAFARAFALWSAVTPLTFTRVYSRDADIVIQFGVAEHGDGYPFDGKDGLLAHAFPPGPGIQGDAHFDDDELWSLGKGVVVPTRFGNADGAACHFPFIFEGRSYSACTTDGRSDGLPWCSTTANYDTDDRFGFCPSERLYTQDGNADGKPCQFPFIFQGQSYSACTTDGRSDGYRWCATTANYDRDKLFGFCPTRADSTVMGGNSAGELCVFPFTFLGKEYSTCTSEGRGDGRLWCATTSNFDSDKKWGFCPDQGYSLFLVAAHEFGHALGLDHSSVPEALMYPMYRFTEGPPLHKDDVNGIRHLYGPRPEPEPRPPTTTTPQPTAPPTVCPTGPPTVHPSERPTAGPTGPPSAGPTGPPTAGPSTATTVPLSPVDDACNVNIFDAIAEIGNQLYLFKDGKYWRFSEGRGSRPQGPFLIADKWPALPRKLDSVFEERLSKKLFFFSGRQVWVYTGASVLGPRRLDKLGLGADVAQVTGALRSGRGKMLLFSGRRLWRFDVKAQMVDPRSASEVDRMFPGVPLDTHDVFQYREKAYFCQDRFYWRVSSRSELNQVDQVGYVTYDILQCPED

SMILES: CNC(=O)[C@H](Cc1ccccc1)NC(=O)[C@H](CCCCO)CC(=O)NO [Compound 5]
- IC50 [1]: 64 nM
- IC50 [2]: 7 nM

SMILES: CCCNC(=O)CCC[C@H](CC(=O)NO)C(=O)N[C@@H](Cc1ccccc1)C(=O)NC [Compound 6]
- IC50 [1]: 5100 nM
- IC50 [2]: 2 nM

SMILES: CNC(=O)[C@H](Cc1ccccc1)NC(=O)[C@H](CCCC(=O)NCCc1ccccc1)CC(=O)NO [Compound 7]
- IC50 [1]: 1300 nM
- IC50 [2]: 32 nM

SMILES: CNC(=O)[C@H](Cc1ccccc1)NC(=O)[C@H](CCCOCc1ccccc1)CC(=O)NO [Compound 8]
- IC50 [1]: 2270 nM

SMILES: CCCCCCCCCCCC[C@H](CC(=O)O)C(=O)N[C@@H](Cc1ccccc1)C(=O)NC [Compound 11]
- MMP-1 % @ 100 µM ([1]; @ 100 µM): 30% @ 100 µM

SMILES: O=C(C[C@@H](CCCc1ccccc1)C(=O)N[C@@H](CC1CCCCC1)C(=O)NCCc1ccccc1)NO [Compound 17]
- IC50 [3]: 8.3 nM
- IC50 [1]: 203 nM
- selectivity for MMP-2 over MMP-1 [4]: 10,000 fold
- selectivity for MMP-2 over MMP-3 [4]: 100 fold

SMILES: O=C(C[C@@H](CCCc1ccc(Cl)cc1)C(=O)N[C@@H](CC1CCCCC1)C(=O)NCCNS(=O)(=O)N1CCOCC1)NO [Compound 18]
- IC50 [5]: 0.016 nM
- inhibition of MMP-13 (in words) [6]: potently inhibits
- IC50 [7]: < 0.01 nM
- IC50 [1]: 385 nM

SMILES: Cc1ccc(CCC[C@H](CC(=O)O)C(=O)N[C@@H](CC2CCCCC2)C(=O)NCCc2ccccc2)cc1 [Compound 19]
- IC50 [3]: 470 nM
- IC50 [7]: 1 nM
- IC50 [1]: 22000 nM

SMILES: CCCCCCCCC(NC(C)C(=O)O)C(=O)NC(CC(C)C)C(=O)Nc1ccccc1 (stereo not drawn) [Compound 24]
- IC50 [3]: 570 nM
- IC50 [7]: 340 nM
- IC50 [1]: > 10000 nM

SMILES: CC(C)CC(NC(=O)C(CCc1ccccc1)NC(CCCCN1C(=O)c2ccccc2C1=O)C(=O)O)C(=O)Nc1ccccc1 (stereo not drawn) [Compound 27]
- IC50 [3]: 8 nM
- IC50 [7]: 86 nM
- IC50 [1]: 720 nM

SMILES: CNC(=O)[C@H](Cc1ccccc1)NC(=O)[C@H](CC(C)C)N[C@@H](CCN1C(=O)c2cc3ccccc3cc2C1=O)C(=O)O [Compound 28]
- IC50 [5]: 5 nM
- IC50 [3]: 91 nM
- IC50 [1]: 20 nM

SMILES: CNC(=O)[C@H](Cc1ccccc1)NC(=O)[C@H](CC(C)C)N[C@@H](CCN1C(=O)c2cc3ccccc3c(OC)c2C1=O)C(=O)O [Compound 29]
- IC50 [5]: 7 nM
- IC50 [3]: 1400 nM
- IC50 [1]: 54 nM

SMILES: CC(C)CC(NC(CCN1C(=O)c2cc3ccccc3cc2C1=O)C(=O)O)C(=O)NCCc1ccccc1 (stereo not drawn) [Compound 30]
- IC50 [5]: 35 nM
- IC50 [7]: > 10000 nM
- IC50 [1]: 160 nM

SMILES: CC(C)C[C@H](N[C@@H](CCN1C(=O)c2cc3ccccc3cc2C1=O)C(=O)O)C(=O)NCc1ccc(C(=O)O)cc1 [Compound 31]
- IC50 [5]: 74 nM
- IC50 [7]: 178 nM
- IC50 [1]: 56 nM

SMILES: CCCc1ccc(CCC(CC(CCCCN2C(=O)c3ccccc3C2=O)C(=O)O)C(=O)NC(CC(C)C)C(=O)Nc2ccccc2)cc1 (stereo not drawn) [Compound 32]
- IC50 [3]: 0.036 nM
- IC50 [7]: 5.7 nM
- IC50 [1]: > 10000 nM

SMILES: NC(=O)C(Cc1ccccc1)NC(=O)C(CS)NC(=O)C(F)(F)F (stereo not drawn) [Compound 33] (Tfa-Cys-Phe-NH2; configuration not given here)
- IC50 [1]: 40 nM

SMILES: CC(=O)NC(CS)C(=O)NC(Cc1ccccc1)C(N)=O (stereo not drawn) [Compound 34] (Ac-Cys-Phe-NH2; configuration not given here)
- IC50 [1]: > 100000 nM
- inhibition of MMP-1 (in words) [1]: did not inhibit

SMILES: NC(=O)C(Cc1ccccc1)NC(=O)C(CS)NC(=O)CCc1ccccc1 (stereo not drawn) [Compound 35] (Hydrocinnamoyl-Cys-Phe-NH2; configuration not given here)
- IC50 [1]: 3500 nM
- IC50 [2]: 38 nM

SMILES: Cc1ccc(CCCC(CP(=O)(O)O)C(=O)NC(CC2CCCCC2)C(=O)NCCc2ccccc2)cc1 (stereo not drawn) [Compound 37]
- IC50 [3]: 277 nM
- IC50 [7]: 2.5 nM
- IC50 [1]: 17000 nM

SMILES: COc1ccc(S(=O)(=O)N(Cc2cccnc2)[C@@H](C(=O)NO)C(C)C)cc1 [Compound 40]
- proteoglycan break down [8]: blocks proteoglycan break down
- activity in the guinea pig model of osteoarthritis (in words) [9]: effective

SMILES: O=C(CC(CCc1ccccc1)C(=O)O)c1ccc(-c2ccc(OCc3ccccc3)cc2)cc1 (stereo not drawn) [Compound 43]
- IC50 [5]: 3200 nM
- IC50 [3]: 17 nM
- inhibiting femoral lesions [9]: 37.8%
- activity in the guinea pig model of osteoarthritis (in words) [9]: active
- IC50 [7]: 14 nM

SMILES: O=C(CC(CCN1C(=O)c2ccccc2C1=O)C(=O)O)c1ccc(-c2ccc(OCc3ccccc3)cc2)cc1 (stereo not drawn) [Compound 44]
- IC50 [5]: 1.5 nM
- antimetastatic effect, tail vein metastasis model [10]: antimetastatic
- antimetastatic effect, spontaneous metastasis model [11]: antimetastatic
- IC50 [3]: 5.7 nM
- inhibiting femoral lesions [9]: 53%
- activity in the guinea pig model of osteoarthritis (in words) [9]: active
- IC50 [7]: 0.91 nM

SMILES: CO[C@H]1[C@H](O[C@@H]2c3c(cc4c(c3O)C(=O)c3c(O)cccc3C4=O)C(=O)[C@@](C)(O)[C@H]2OC)O[C@@H](C)[C@H](O)[C@H]1O [Compound 46, aranciamycin]
- inhibition of MMPs (in words) [12]: weak inhibitors

SMILES: COC(=O)c1cccc2c1C(=O)c1c(C(=O)OC)cc(C(=O)O)cc1C2=O [Compound 48]
- inhibition of MMP-1 (in words) [1]: MMP-1 inhibitors

SMILES: CC(=O)NC1C(O)CC(Cc2cc3ccc(=O)oc3cc2OC(=O)N(C)C)C(O)C1O (stereo not drawn) [Compound 49]
- inhibition of MMP-1 (in words) [1]: weak inhibitors

SMILES: CNC(=O)[C@@H](NC(=O)[C@@H](CC(=O)NO)CC(C)C)C(C)(C)C [RO 31-9790]
- protection in adoptively transferred EAE [13]: protect
